Source: patent publication US20250019381A1, “PROCESS FOR THE […] OF 6-((3S,4S)-4-METHYL-1-(PYRIMIDIN-2-[…])PYRROLIDIN-3-YL)-3-(TETRAHYDROPYRAN-4-YL-7H-IMIDAZO[1,5-a]PYRAZIN-8-ONE” (Cardurion Pharmaceuticals, Inc., priority 2017, published 2025)

Columns and labels:
[1] = Stability study of solution in purified water; type: physicochemical; settings: approximately 40 mg/mL in purified water, refrigerated and ambient, 8 days
Experimental: In another stability study, Compound P3.1 was dissolved at approximately 40 mg/mL of purified water and evaluated for purity over a period of 8 days. Samples were stored at both refrigerated and ambient conditions, and tested at T=0, Day 2, and Day 8.

PDE1 = PDE1 inhibition IC50; type: biochemical
PDE9 = PDE9 (Homo sapiens (Human), UniProt O76083); type: biochemical
[2] = Stability study of drug substance in polyethylene/aluminum pouches; type: physicochemical; settings: solid, ambient temperature and 40° C.-45° C. (no humidity control), 3-month period
Experimental: A stability study has been completed on Compound P3.1. Samples of Compound P3.1 were aliquoted into double-walled polyethylene pouches, which were tied off and then heat-scaled in an aluminum pouch. Samples were stored at ambient temperature and at 40° C.-45° C. (no humidity control) with testing performed over a 3-month period.

[3] = Blood Brain Barrier penetration: plasma and brain concentration; type: in vivo

PDE9, sequence (O76083 whole entry): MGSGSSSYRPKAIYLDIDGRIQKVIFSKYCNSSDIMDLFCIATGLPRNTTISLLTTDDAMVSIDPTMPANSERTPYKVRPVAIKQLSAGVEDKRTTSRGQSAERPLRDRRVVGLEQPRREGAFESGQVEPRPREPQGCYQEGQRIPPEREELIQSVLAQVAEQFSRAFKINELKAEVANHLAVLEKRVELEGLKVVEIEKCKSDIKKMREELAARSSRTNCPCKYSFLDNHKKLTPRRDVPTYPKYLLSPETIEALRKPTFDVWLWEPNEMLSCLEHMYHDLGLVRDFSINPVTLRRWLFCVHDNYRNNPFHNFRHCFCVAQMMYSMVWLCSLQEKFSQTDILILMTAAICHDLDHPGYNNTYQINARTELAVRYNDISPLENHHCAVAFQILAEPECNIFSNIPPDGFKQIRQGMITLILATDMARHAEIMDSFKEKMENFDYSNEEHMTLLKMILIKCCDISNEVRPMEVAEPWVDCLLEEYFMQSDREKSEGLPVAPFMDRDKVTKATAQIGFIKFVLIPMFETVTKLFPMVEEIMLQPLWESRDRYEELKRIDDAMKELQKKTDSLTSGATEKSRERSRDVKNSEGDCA

SMILES	IC50 (PDE1)	Brain concentration after 30 minutes ([3]; 30 min)	Brain concentration after 120 minutes ([3]; 120 min)	Plasma concentration after 120 minutes ([3]; plasma, 120 min)	further results
C[C@@H]1CN(Cc2ncccn2)C[C@H]1c1cn2c(C3CCOCC3)ncc2c(=O)[nH]1 [Compound P3.1, (3S,4S)-6-(4-methyl-1-pyrimidin-2-ylmethyl-pyrrolidin-3-yl)-3-(tetrahydro-pyran-4-yl)-7H-imidazo[1,5-a]pyrazin-8-one]	3000 nM	30 min.: 67 ng/mL	120 min.: 7 ng/mL	120 min.: 226 ng/mL	Change to purity of the compound or appearance of the solution [1]: No significant change; IC50 (PDE9): 10 nM; Changes to appearance or purity of the material on storage [2]: no changes to appearance or purity; Plasma concentration after 30 minutes ([3]; plasma, 30 min): 30 min.: 1620 ng/mL
O=c1[nH]c(CN2CC(OCc3ccc(F)cc3)C2)nn2c(C3CCOCC3)ncc12 [Compound P4]	–	–	–	120 min.: 352 ng/mL	–
O=c1[nH]c(CN2CC(Oc3cccnc3)C2)cn2c(C3CCOCC3)ncc12 [Compound P2]	–	Below	Below	–	–
O=c1[nH]c(CN2CC(Oc3ccncc3)C2)cn2c(-c3ccc(F)cc3)ncc12 [Compound P1]	–	–	–	–	Brain/Plasma ratio after 30 minutes ([3]; 30 min): 0.06; Brain/Plasma ratio after 120 minutes ([3]; 120 min): 0.08
C[C@@H]1CN(Cc2ncccn2)C[C@H]1c1nc2c(cnn2C2CCOCC2)c(=O)[nH]1 (relative stereo)	2500 nM	–	–	–	–
